Measurements as given in patent US10266544B2, “Aryl substituted aminomethyl spectinomycin analogs as antibacterial agents” (ST. JUDE CHILDREN'S RESEARCH HOSPITAL, INC., priority 2013, dated 2019).
Counter-ions that a name gives are not always drawn. Like-named read-outs stand apart in the source and are kept apart here.

How the values were obtained:
[1] = system: S. pneumoniae; test: Resistance frequency determination and cross resistance of spontaneous mutants; type: cell-based, Streptococcus pneumoniae; conditions: cross resistance testing of 2 mutants
[2] = system: S. pneumoniae D39x; test: Mouse challenge, mouse model of lung infection; type: in vivo; conditions: 72 hours post challenge
Protocol: Mice were treated with a 5 mg/kg dose b.i.d. of spectinomycin (indicated as “SPC” in the figure) or compound 2 (the compound number refers to the compound number and associated structure shown in Table 1), or vehicle. (Panel B) The bacterial burden of mice at 18 hours post-challenge with S. pneumoniae D39x. (Panel C) Representative bioluminescent images of mice at 72 hours post challenge.
All experimental animal protocols were approved by the St. Jude Children's Research Hospital Institutional Animal Care and Use Committee. Seven week old, female BalbC/J mice (Jackson Labs, Bar Harbor, Me.) we utilized in these studies. All mice were maintained in BSL2 facilities and all experiments were done under inhaled isoflurane (2.5%). Bacteria (strain D39x) were introduced by intranasal administration of 2×10^7 CFU in 25 μL PBS. Mice received no treatment, plasmalyte A (vehicle control), ampicillin (100 mg/kg), spectinomycin (50, 25, 5 mg/kg) or the respective compounds (50, 25, 5 mg/kg) at dosages indicated. Antibiotics were administered in a volume of 100 μL by subcutaneous […] starting at 18 hours post challenge, a time point when the mice have developed pneumonia and bacteria have translocated into the bloodstream. Mice were subsequently dosed every 12 hours until 96 hours post challenge. Mice were monitored daily for signs of infection and weight loss. Differences in time to death were compared via Kaplan-Meier survival estimates. Bacterial density in blood was quantified at 24, 48, 72, and 96 hours post infection via blood collection, serial dilution, and plating. Groups were then compared by Mann-Whitney to determine statistical significance. At 8 days following challenge, surviving mice were euthanized and bacterial loads in lungs determined by homogenization followed by serial dilution and plating. In all instances, surviving mice had completely cleared bacteria from both the lungs and the bloodstream by this time point.
Compound 2 was tested for anti-pneumococcal activity in mice as described above. […]

[3] = system: Bacillus anthracis, Sterne 34F2; test: microbe, parasite or virus in culture; type: cell-based; conditions: STERNE34F2, read-out: MIC B.a.
[4] = system: Bacillus subtilis (ATCC 23857); test: MIC determination, microbroth dilution; type: cell-based; conditions: ATCC23857; Bacillus subtilis (ATCC 23857); read-out: MIC B.s.
[5] = system: Enterococcus faecalis (ATCC 33186); test: MIC determination, microbroth dilution; type: cell-based; conditions: ATCC33186; Enterococcus faecalis (ATCC 33186); read-out: MIC E.f.
[6] = system: Staphylococcus aureus (ATCC 29213); test: MIC determination, microbroth dilution; type: cell-based; conditions: ATCC29213; Staphylococcus aureus (ATCC 29213); read-out: MIC S.a.
[7] = system: MRSA, Staphylococcus aureus (NRS70); test: MIC determination, microbroth dilution; type: cell-based; conditions: Staphylococcus aureus (NRS70); read-out: MIC MRSA
[8] = system: Streptococcus pneumoniae (R6); test: MIC determination, microbroth dilution; type: cell-based; conditions: Streptococcus pneumoniae (R6); read-out: MIC S. pn.
[9] = system: Streptococcus pyogenes (ATCC 700294); test: MIC determination, microbroth dilution; type: cell-based; conditions: ATCC700294; Streptococcus pyogenes (ATCC 700294); read-out: MIC S. py.
[10] = system: acinetobacter baumannii (ATCC 19606); test: MIC determination, microbroth dilution; type: cell-based; conditions: ATCC19606
[11] = system: Burkholderia cepacia (ATCC 25416); test: MIC determination, microbroth dilution; type: cell-based; conditions: Burkholderia cepacia
[12] = system: Escherichia coli (ATCC 700926); test: MIC determination, microbroth dilution; type: cell-based; conditions: ATCC700926; Escherichia coli (ATCC 700926); read-out: MIC E.c.
[13] = system: E. coli K12 ΔtolC; test: microbe, parasite or virus in culture; type: cell-based; conditions: Escherichia coli, read-out: MIC E.c. Δtolc
[14] = system: Klebsiella pneumoniae (ATCC 33495); test: MIC determination, microbroth dilution; type: cell-based; conditions: ATCC33495
[15] = system: Pseudomonas aeruginosa (PA01); test: MIC determination, microbroth dilution; type: cell-based
[16] = system: Proteus mirabilis (ATCC 25933); test: MIC determination, microbroth dilution; type: cell-based; conditions: ATCC25933
[17] = system: Proteus vulgaris (ATCC 33420); test: MIC determination, microbroth dilution; type: cell-based; conditions: ATCC33420
[18] = system: Stenotrophomonas maltophilia (ATCC 13637); test: MIC determination, microbroth dilution; type: cell-based; conditions: ATCC13637; Stenotrophomonas maltophilia (ATCC 13637); read-out: MIC S.m.
[19] = system: Haemophilus influenza (ATCC 49247); test: microbe, parasite or virus in culture; type: cell-based; conditions: ATCC49247; Haemophilus influenza; 4 μg per disc; range of at least two experiments; read-out: Zone of inhibition H.i.
[20] = system: Neisseria meningitides (ATCC 13077); test: Disc diffusion assay; type: cell-based; conditions: ATCC13077, 4 μg per disc, read-out: Zone of inhibition N.m.
[21] = system: Neisseria gonorrhoeae (ATCC 49226); test: Disc diffusion assay; type: cell-based; conditions: ATCC49226, 4 μg per disc, read-out: Zone of inhibition N.g.
[22] = system: Neisseria gonorrhoeae (ATCC 49226); test: Agar MIC determination (Alamar Blue); type: cell-based; conditions: ATCC49226, agar MIC, read-out: MIC N.g.
[23] = system: Bacillus anthracis; test: microbe, parasite or virus in culture; type: cell-based; conditions: read-out: MIC B.a.
[24] = system: Yersinia pestis; test: microbe, parasite or virus in culture; type: cell-based; conditions: read-out: MIC Y.p.
[25] = system: M. tuberculosis clinical isolates; test: microbe, parasite or virus in culture; type: cell-based; conditions: Mycobacterium tuberculosis, H37RV, read-out: MIC H37Rv
[26] = system: gram-positive and gram-negative bacteria; type: cell-based
[27] = system: Listeria monocytogenes; test: MIC determination (Table 6); type: cell-based
[28] = system: Moraxella catarrhalis; test: MIC determination (Table 6); type: cell-based

Q: Which results are given for `CN[C@@H]1[C@H](O)[C@H](NC)[C@H]2O[C@@]3(O)C(=O)C[C@@H](C)O[C@H]3O[C@@H]2[C@H]1O` [spectinomycin]?
A: susceptibility of mutants resistant to 2 [1]: cross resistance; bioluminescent images of mice [2]: systemic bacterial infection

Q: `CN[C@@H]1[C@H](O)[C@H](NC)[C@H]2O[C@]3(O)[C@H](O[C@@H]2[C@H]1O)O[C@H](C)C[C@@]3(O)CNCCCc1ccccc1` [compound 13, 3′-(R)-3′-(phenylpropylaminomethyl)dihydrospectinomycin Trihydrochloride] was tested. Which MIC [3] did it give?
A: 3.1 to 6.3 µg/mL

Q: What about the MIC [4] of the same compound?
A: 6.3 µg/mL

Q: And the MIC [5]?
A: 6.3 µg/mL

Q: What about the MIC [6] of the same compound?
A: 12.5 µg/mL

Q: What about the MIC [7] of the same compound?
A: 12.5 to 25 µg/mL

Q: What about the MIC [8] of the same compound?
A: 3.1 µg/mL

Q: What about the MIC [9] of the same compound?
A: 3.1 µg/mL

Q: And the MIC [10]?
A: > 200 µg/mL

Q: And the MIC ([11]; ATCC25416, read-out: MIC B.c., Burkholderia cepacia (ATCC 25416))?
A: > 200 µg/mL

Q: What about the MIC ([11]; ATCC25416, read-out: MIC B.c., Burkholderia cepacia, Table 6) of the same compound?
A: > 200 µg/mL

Q: What about the MIC [12] of the same compound?
A: 12.5 µg/mL

Q: And the MIC [13]?
A: 6.3 µg/mL

Q: What about the MIC [14] of the same compound?
A: 50 µg/mL

Q: What about the MIC [15] of the same compound?
A: 200 µg/mL

Q: And the MIC [16]?
A: > 200 µg/mL

Q: And the MIC [17]?
A: ≥ 200 µg/mL

Q: And the MIC [18]?
A: 6.3 to 12.5 µg/mL

Q: What about the zone of inhibition at 4 µg/disc [19] of the same compound?
A: 14 mm

Q: What about the zone of inhibition at 4 µg/disc [20] of the same compound?
A: 21 mm

Q: And the zone of inhibition at 4 µg/disc [21]?
A: 15 mm

Q: What about the MIC [22] of the same compound?
A: 12.5 to 25 µg/mL

Q: And the MIC [23]?
A: 3.1 to 6.3 µg/mL

Q: And the MIC [24]?
A: 50 µg/mL

Q: And the MIC [25]?
A: 3.1 µg/mL

Q: And the “MIC relative to parent SPC” value [26]?
A: ~10 % of parent SPC

Q: And the MIC [27]?
A: 1.6 to 3.1 µg/mL

Q: And the MIC [28]?
A: 0.4 µg/mL

Q: Which “susceptibility of mutants resistant to 2” value [1] does the source give for `CC[C@H]1OC(=O)[C@H](C)[C@@H](O[C@H]2C[C@@](C)(OC)[C@@H](O)[C@H](C)O2)[C@H](C)[C@@H](O[C@@H]2O[C@H](C)C[C@H](N(C)C)[C@H]2O)[C@](C)(O)C[C@@H](C)C(=O)[C@H](C)[C@@H](O)[C@]1(C)O` [erythromycin] here?
A: susceptible

Q: Which “susceptibility of mutants resistant to 2” value [1] does the source give for `CN[C@H](CC(C)C)C(=O)N[C@H]1C(=O)N[C@@H](CC(N)=O)C(=O)N[C@H]2C(=O)N[C@H]3C(=O)N[C@H](C(=O)N[C@H](C(=O)O)c4cc(O)cc(O)c4-c4cc3ccc4O)[C@H](O)c3ccc(c(Cl)c3)Oc3cc2cc(c3O[C@@H]2O[C@H](CO)[C@@H](O)[C@H](O)[C@H]2O[C@H]2C[C@](C)(N)[C@H](O)[C@H](C)O2)Oc2ccc(cc2Cl)[C@H]1O` [vancomycin] here?
A: susceptible

Q: `CC(=O)NC[C@H]1CN(c2ccc(N3CCOCC3)c(F)c2)C(=O)O1` [linezolid] was tested. Which “susceptibility of mutants resistant to 2” value [1] did it give?
A: susceptible
